According to ChEMBL document CHEMBL1795238, “Structure-brain exposure relationships in rat and human using a novel data set of unbound drug concentrations in brain interstitial and cerebrospinal fluids” (J Med Chem, 2009):

Legend:
Plasma [1] = settings: rat, iv, 4 h
Brain = settings: rat, in vivo, iv, 4 h
[2] = Sprague-Dawley, rat, brain, iv, 2 (umol/kg)/hr, 4 h
[3] = Sprague-Dawley, rat, iv, 2 (umol/kg)/hr, 4 h
in vivo [4] = settings: Sprague-Dawley, rat, csf, iv, 2 (umol/kg)/hr
in vitro = settings: Sprague-Dawley, rat, plasma, iv, 2 (umol/kg)/hr
clinical = settings: human, CSF and plasma
Description: Unbound CSF to plasma concentration ratio in human

Plasma [5] = settings: rat, iv, 4 h, BLD = below limit of detection
in vivo [6] = settings: Sprague-Dawley, rat, brain, iv, 2 (umol/kg)/hr
in vivo [7] = settings: Sprague-Dawley, rat, brain and plasma, iv, 2 (umol/kg)/hr

Cp(f) (Plasma [1])	Vdu (Brain)	BPR [2]	K(p,uu,brain) [3]	Kp uu at 4 h (in vivo [4])	fraction unbound at 4 h (in vitro)	Kp uu (clinical)	K(p,uu,CSF) (Plasma [5])	Kp at 4 h (in vivo [6])	Kp uu at 4 h (in vivo [7])	Compound
2800 nM	ND(Unstable)	ND(Unstable)	ND(Unstable)	0.007	0.59	0.17				CO/N=C(\C(=O)N[C@@H]1C(=O)N2C(C(=O)O)=C(COC(C)=O)CS[C@H]12)c1csc(N)n1 [CEFOTAXIME]
16 nM	769 mL				0.05		BLD	0.28	0.007	CC(=O)O[C@H]1C(=O)[C@@]2(C)[C@H]([C@H](OC(=O)c3ccccc3)[C@]3(O)C[C@H](OC(=O)[C@H](O)[C@@H](NC(=O)c4ccccc4)c4ccccc4)C(C)=C1C3(C)C)[C@]1(OC(C)=O)CO[C@@H]1C[C@@H]2O [PACLITAXEL]
